This passage reports EC50 results from patent US11261186B2, “Biaryl derivative as GPR120 agonist” (LG CHEM, LTD., priority 2014, dated 2022).

Usually EC50 stands for the concentration at which the effect is half-maximal.

The assay has as its target T1, hGPR120 (Homo sapiens, UniProt Q5NUL3).
T1 construct: expressed in transfected cells; host or cells: CHO-K1
T1 sequence (Q5NUL3 1-361): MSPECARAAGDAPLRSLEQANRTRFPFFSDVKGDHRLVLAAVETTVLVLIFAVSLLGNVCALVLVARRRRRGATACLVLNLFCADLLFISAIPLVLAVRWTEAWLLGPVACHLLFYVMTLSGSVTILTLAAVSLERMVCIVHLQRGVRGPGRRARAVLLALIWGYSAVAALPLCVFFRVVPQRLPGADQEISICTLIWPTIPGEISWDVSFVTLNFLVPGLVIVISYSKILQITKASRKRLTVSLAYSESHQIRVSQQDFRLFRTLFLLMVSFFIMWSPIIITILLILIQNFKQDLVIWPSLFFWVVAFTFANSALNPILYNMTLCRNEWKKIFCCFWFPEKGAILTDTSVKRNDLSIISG
Briefly: Measurement of Activity of GPR120 Agonist (Cell-Based Assay), Calcium 5 dye fluorescence. To be noted: CHO-K1 cells expressing Ga16 and hGPR120. Put shortly: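 Gα16/hGPR120 CHO-K1; 18 h plating, 37 °C, 5% CO2; Calcium 5 dye load 1 h; agonist serial dilution, 0.5% DMSO final; fluor Ex485/Em525; response as % of 1% DMSO vehicle.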

Consider `O=C(O)CCC1CCN(c2c(F)cc(-c3cccc(C4CCC4)n3)cc2F)CC1` [Example 621, 3-{1-[4-(6-cyclobutyl-pyridin-2-yl)-2,6-difluoro-phenyl]-piperidin-4-yl}-propionic acid], for which the half-maximal effective concentration (EC50) was 200 to 2000 nM.
Regarding `CCOc1cccc(-c2cc(F)c(N3CCC(CCC(=O)O)CC3)c(F)c2)n1` [Example 622, 3-{1-[4-(6-ethoxy-pyridin-2-yl)-2,6-difluoro-phenyl]-piperidin-4-yl}-propionic acid], the EC50 is 200 to 2000 nM.
